Experimental data from patent US8796245B2 (TetraPhase Pharmaceuticals, Inc., priority 2008, dated 2014).
Values after ≈ are worked out from the molar mass of the structure shown.

Legend:
[1] = test system: E. coli ATCC 25922; assay: GN sepsis study, mouse systemic infection model; format: in vivo; settings: mg/kg required to protect 50% of mice in septicemia model with E. coli strain
Procedure: Compounds of the present invention were evaluated for efficacy in a mouse systemic infection model against a susceptible S. aureus isolate, ATCC 13709. Mice were infected via intraperitoneal injection with a bacterial load that would result in 0% survival within 48 hours after infection. Mice received the test compounds 60 minutes post infection via intravenous injection. […] Survival was assessed over a 48 hour period. Percent survival was calculated and PD50 values determined using Probit analysis. The protocol for GN sepsis study was similar to the protocol for EV50 IV study described above except the infection model used E. coli ATCC 25922.

[2] = Protein binding in human plasma (RED devices); format: in vitro ADME; settings: % Protein binding in human plasma with compound at 10 uM
Procedure: Test compounds were prepared as 1.0 mg/mL stock solutions in DMSO. The analytes and internal standard were diluted and infused into the LC/MS system to determine optimal ionization, polarity and MS/MS fragmentation for selection of specific MRM (multiple reaction monitoring) transitions. Generic chromatographic conditions were developed with a less than 5 minute cycle time.
[…] The time point was removed at the end of the incubation period. After a protein crash with acetonitrile, the samples were analyzed by LC/MS/MS. Peak areas for the buffer (receiver) and sample (donor) chambers were compared and the protein bound fraction is calculated. Analysis was conducted in duplicate.

[3] = test system: S. aureus isolate, ATCC 13709; assay: ED50 IV study, mouse systemic infection model; format: in vivo; settings: Staphylococcus aureus, ATCC13709, mg/kg required to protect 50% of mice in septicemia model with S. aureus Smith strain, 60 minutes post infection, 48 hour survival
Procedure: (§1) Compounds of the present invention were evaluated for efficacy in a mouse systemic infection model against a susceptible S. aureus isolate, ATCC 13709. Mice were infected via intraperitoneal injection with a bacterial load that would result in 0% survival within 48 hours after infection. Mice received the test compounds 60 minutes post infection via intravenous injection. […] Survival was assessed over a 48 hour period. Percent survival was calculated and PD50 values determined using Probit analysis.

[4] = Metabolic stability, pooled human microsome assay; format: in vitro ADME; settings: % compound remaining after 60 min, 37° C. incubation with human liver microsomes
Procedure: A stock solution of the test compounds were prepared by dissolving the compound in DMSO to a final concentration of 1.0 mg/mL. The analytes and internal standard were diluted and infused into the LC/MS system to determine optimal ionization, polarity and MS/MS fragmentation for selection of specific MRM (multiple reaction monitoring) transitions. Generic chromatographic conditions were developed with a less than 5 minute cycle time. Pooled human microsome assays were conducted at 0.2 mg/mL protein with an NADPH generating cofactor system (1.3 mM NADP+, 3.3 mM glucose-6-phosphate, 0.4 U/mL glucose-6-phosphate dehydrogenase, and 3.3 mM magnesium chloride). Test compounds were diluted from DMSO stocks to 1 μM reaction concentrations. Time points were removed at 0 and 60 minutes. After a protein crash with acetonitrile, samples are analyzed by LC/MS/MS. Peak areas are compared to the time 0 sample, and the percent analyte remaining is calculated. A reaction containing no cofactor was used to control for analyte loss due to non-specific binding, thermal degradation and solubility.

[5] = test system: clinical isolates of E. coli; assay: EC MIC90; format: cell-based; settings: Escherichia coli; inhibit 90% of E. coli clinical isolates (n = 20); read-out: EC MIC 90
Procedure: Twenty randomly selected clinical isolates of S. aureus were used to determine the minimal inhibitory concentration (MIC) of test compounds for 90% of the isolates (MIC90). MICs were performed by microtiter broth dilution in a 96-well format according to Clinical Laboratory Standards Institute (CLSI) guidelines, as described above. Twenty randomly selected clinical isolates of E. coli were used to determine the MIC90 as described above.

[6] = test system: clinical isolates of S. aureus; assay: SA MIC90; format: cell-based; settings: Staphylococcus aureus; inhibit 90% of S. aureus clinical isolates (n = 20); read-out: SA MIC 90
Procedure: Twenty randomly selected clinical isolates of S. aureus were used to determine the minimal inhibitory concentration (MIC) of test compounds for 90% of the isolates (MIC90). MICs were performed by microtiter broth dilution in a 96-well format according to Clinical Laboratory Standards Institute (CLSI) guidelines, as described above. Viable counts were determined by 10-fold serial dilution. Dilutions were prepared in sterile 0.9% NaCl. Ten microliters of the inoculum and of each of 5 dilutions were plated onto blood or Mueller Hinton agar plates, incubated overnight at 37° C. with 5% CO2, and counted.

[7] = test system: tetracycline-resistant S. aureus; assay: TetR MIC90; format: cell-based; settings: Staphylococcus aureus; inhibit 90% of tetracycline-resistant S. aureus (n = 10); read-out: TetR MIC 90
Procedure: Twenty randomly selected clinical isolates of S. aureus were used to determine the minimal inhibitory concentration (MIC) of test compounds for 90% of the isolates (MIC90). MICs were performed by microtiter broth dilution in a 96-well format according to Clinical Laboratory Standards Institute (CLSI) guidelines, as described above.

[8] = test system: S. aureus ATCC 13709; assay: Thigh burden, neutropenic mouse thigh infection; format: in vivo; settings: maximum log10 reduction in bacteria compared to untreated control, achieved at tested doses; neutropenic mice, IV
Procedure: Female CD-1 mice were pre-treated with cyclophosphamide to render the mice neutropenic. Mice were infected with S. aureus ATCC 13709 via injection into the right thigh muscle of 0.1 ml per mouse. One and a half hours post infection mice were treated IV with test compounds in doses ranging from 0.3 to 30 mg/kg or 0.3 to 20 mg/kg. Four mice were treated with each drug concentration. Twenty-four hours post treatment, mice were euthanized by CO2 inhalation. The right thighs of the mice were aseptically removed, weighed, homogenized, serially diluted, and plated on TSA medium. The plates were incubated overnight at 37° C. in 5% CO2. Colony forming units per gram of thigh was calculated by enumerating the plated colonies then adjusting for serial dilutions and the weight of the thigh.

[9] = test system: S. aureus SA161, a tetracycline-resistant strain; assay: Tet-R sepsis study, mouse systemic infection model; format: in vivo; settings: mg/kg required to protect 50% of mice in septicemia model with tetracycline-resistant S. aureus strain
Procedure: as §1
The protocol for tetracycline-resistance sepsis study was similar to the protocol for EV50 IV study described above except the infection model used S. aureus SA161, a tetracycline-resistant strain.

[10] = test system: A. baumanii ATCC 19606 (AB110); assay: Minimum inhibitory concentration assay, AB110; format: cell-based; settings: Acinetobacter baumannii, ATCC19606; A. baumanii ATCC 19606, wt; read-out: MICs AB110
Outline: (§2)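 Inoculum of 0.5 McFarland was diluted 1:125 in Mueller Hinton Broth. Streptococcus media were blood-supplemented. Plates with serial compound dilutions were incubated overnight at 37° C, and MIC was recorded as the lowest inhibitory concentration.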

[11] = test system: S. pneumoniae ATCC 49619 (SP106); assay: Minimum inhibitory concentration assay, SP106; format: cell-based; settings: Streptococcus pneumoniae, ATCC49619; S. pneumoniae ATCC 49619, wt; read-out: MICs SP106
Outline: as §2

[12] = test system: S. aureus SA158 (tet resistant: tetK efflux); assay: microbe, parasite or virus in culture; format: cell-based; settings: Staphylococcus aureus, read-out: MICs SA158
Outline: as §2

[13] = test system: K. pneumoniae KP153 (tet resistant: tetA efflux); assay: microbe, parasite or virus in culture; format: cell-based; settings: Klebsiella pneumoniae, read-out: MICs KP153
Outline: as §2

[14] = test system: E. coli EC155 (tet resistant: tetA efflux); assay: microbe, parasite or virus in culture; format: cell-based; settings: Escherichia coli; E. coli tet resistant: tetA (efflux); read-out: MICs EC155
Outline: as §2

[15] = test system: E. faecalis EF159 (tet resistant: tetM); assay: Minimum inhibitory concentration assay, EF159; format: cell-based; settings: Enterococcus faecalis, read-out: MICs EF159
Outline: as §2

[16] = test system: K. pneumoniae ATCC 13883 (KP109); assay: Minimum inhibitory concentration assay, KP109; format: cell-based; settings: Klebsiella pneumoniae, ATCC13883; K. pneumoniae ATCC 13883, wt; read-out: MICs KP109
Outline: as §2

[17] = test system: E. coli ATCC 25922 (EC107); assay: Minimum inhibitory concentration assay, EC107; format: cell-based; settings: Escherichia coli, ATCC25922; E. coli ATCC 25922, wt; read-out: MICs EC107
Outline: as §2

[18] = test system: E. faecalis ATCC 29212 (EF103); assay: Minimum inhibitory concentration assay, EF103; format: cell-based; settings: Enterococcus faecalis, ATCC29212, read-out: MICs EF103
Outline: as §2

[19] = test system: S. aureus ATCC 13709 (SA100, MSSA, Smith strain); assay: Minimum inhibitory concentration assay, SA100; format: cell-based; settings: Staphylococcus aureus; S. aureus ATCC 13709, MSSA Smith strain; read-out: MICs SA100
Outline: as §2

[20] = test system: P. aeruginosa ATCC 27853 (PA111); assay: Minimum inhibitory concentration assay, PA111; format: cell-based; settings: Pseudomonas aeruginosa, ATCC27853; P. aeruginosa ATCC 27853, wt; read-out: MICs PA111
Outline: as §2

[21] = test system: E. cloacae ATCC 13047 (EC108); assay: Minimum inhibitory concentration assay, EC108; format: cell-based; settings: Enterobacter cloacae, ATCC13047; E. cloacae ATCC 13047, wt; read-out: MICs EC108
Outline: as §2

[22] = test system: S. pneumoniae SP160 (tet resistant: tet M); assay: Minimum inhibitory concentration assay, SP160; format: cell-based; settings: Streptococcus pneumoniae, read-out: MICs SP160
Outline: as §2

[23] = test system: S. aureus SA161 (tet resistant: tet(M) ribosomal protection); assay: Minimum inhibitory concentration assay, SA161; format: cell-based; settings: Staphylococcus aureus, read-out: MICs SA161
Outline: as §2

[24] = test system: S. aureus ATCC 29213 (SA101, MSSA); assay: Minimum inhibitory concentration assay, SA101; format: cell-based; settings: Staphylococcus aureus; S. aureus ATCC 29213, MSSA control; read-out: MICs SA101
Outline: as §2

Compound | GN sepsis [1] | Prot Bind % [2] | ED50 [3] | Meta Stab % [4] | MIC90 [5] | MIC90 [6] | MIC90 [7] | Thigh Burden [8] | TetR sepsis [9] | also measured
CN(C)c1cc(NC(=O)CNC(C)(C)C)c(O)c2c1C[C@H]1C[C@H]3[C@H](N(C)C)C(O)=C(C(N)=O)C(=O)[C@@]3(O)C(O)=C1C2=O | 2.1 mg/kg | 69.1% | 0.97 mg/kg | 55% | 0.5 µg/mL (≈ 0.854 µM) | 0.06 µg/mL (≈ 0.102 µM) | 1 µg/mL (≈ 1.71 µM) | 4.89 log10 decrease | 0.55 mg/kg | 
CN(C)[C@@H]1C(O)=C(C(N)=O)C(=O)[C@@]2(O)C(O)=C3C(=O)c4c(O)c(NC(=O)CN5Cc6ccccc6C5)cc(F)c4C[C@H]3C[C@@H]12 [Compound 46] |  |  |  |  |  |  |  |  |  | MIC [10]: 0.125 µg/mL (≈ 0.206 µM); MIC [11]: 0.125 µg/mL (≈ 0.206 µM); MIC [12]: 0.25 µg/mL (≈ 0.412 µM); MIC [13]: 32 µg/mL (≈ 52.8 µM); MIC [14]: 4 µg/mL (≈ 6.59 µM); MIC [15]: 0.5 µg/mL (≈ 0.824 µM); MIC [16]: 4 µg/mL (≈ 6.59 µM); MIC [17]: 2 µg/mL (≈ 3.3 µM); MIC [18]: 0.25 µg/mL (≈ 0.412 µM); MIC [19]: 0.25 µg/mL (≈ 0.412 µM); MIC [20]: > 32 µg/mL; MIC [21]: 32 µg/mL (≈ 52.8 µM); MIC [22]: 0.125 µg/mL (≈ 0.206 µM); MIC [23]: 0.5 µg/mL (≈ 0.824 µM); MIC [24]: 0.25 µg/mL (≈ 0.412 µM)
CN(C)[C@@H]1C(O)=C(C(N)=O)C(=O)[C@@]2(O)C(O)=C3C(=O)c4c(O)c(NC(=O)CNC(C)(C)C)cc(F)c4C[C@H]3C[C@@H]12 [drawing 214] | 6.2 mg/kg | 90% | 0.3 mg/kg | 104% | 0.5 µg/mL (≈ 0.892 µM) | 0.03 µg/mL (≈ 0.0535 µM) | 2 µg/mL (≈ 3.57 µM) | 4.41 log10 decrease | 0.4 mg/kg | 
CC(C)CNCC(=O)Nc1cc(F)c2c(c1O)C(=O)C1=C(O)[C@]3(O)C(=O)C(C(N)=O)=C(O)[C@@H](N(C)C)[C@@H]3C[C@@H]1C2 [drawing 215] | 14.3 mg/kg | 95.6% | 0.55 mg/kg | 72% | 1 µg/mL (≈ 1.78 µM) | 0.03 µg/mL (≈ 0.0535 µM) | 4 µg/mL (≈ 7.14 µM) | 5.01 log10 decrease | 3.5 mg/kg | 
CN(C)[C@@H]1C(O)=C(C(N)=O)C(=O)[C@@]2(O)C(O)=C3C(=O)c4c(O)c(NC(=O)CN5CCC5)cc(F)c4C[C@H]3C[C@@H]12 [drawing 216] |  | 87.1% | 0.07 mg/kg | 85% | 0.5 µg/mL (≈ 0.918 µM) | 0.03 µg/mL (≈ 0.0551 µM) | 4 µg/mL (≈ 7.35 µM) |  |  | 
CN(C)[C@@H]1C(O)=C(C(N)=O)C(=O)[C@@]2(O)C(O)=C3C(=O)c4c(O)c(NC(=O)CNCC5CC5)cc(F)c4C[C@H]3C[C@@H]12 [drawing 218] |  | 87.9% | 0.55 mg/kg | 65% | 2 µg/mL (≈ 3.58 µM) | 0.03 µg/mL (≈ 0.0537 µM) | 8 µg/mL (≈ 14.3 µM) |  |  | 
CC(C)NCC(=O)Nc1cc(F)c2c(c1O)C(=O)C1=C(O)[C@]3(O)C(=O)C(C(N)=O)=C(O)[C@@H](N(C)C)[C@@H]3C[C@@H]1C2 [drawing 219] |  | 96.9% | 0.3 mg/kg | 96% | 1 µg/mL (≈ 1.83 µM) | 0.06 µg/mL (≈ 0.11 µM) | 2 µg/mL (≈ 3.66 µM) |  |  | 
